Results as given in ChEMBL document CHEMBL5053527, “Design, synthesis, and pharmacological profiling of cannabinoid 1 receptor allosteric modulators: Preclinical efficacy of C2-group GAT211 congeners for reducing intraocular pressure” (Bioorg Med Chem, 2021).
Converted amounts (≈) assume the structure as drawn. The source made the active and inactive calls. No cut-off for these calls is given here.

Assays:
Cannabinoid receptor 1 [1] = target: T1, Cannabinoid receptor 1 (Homo sapiens, UniProt P21554); test: Positive allosteric modulation of human CB1 receptor expressed in CHO-K1 cells assessed as inhibition of forskolin-induced cAMP production incubated for 30 mins in presence of forskolin by HitHunter chemiluminescence based assay; type: functional, cell-based
T1 sequence (P21554 whole entry): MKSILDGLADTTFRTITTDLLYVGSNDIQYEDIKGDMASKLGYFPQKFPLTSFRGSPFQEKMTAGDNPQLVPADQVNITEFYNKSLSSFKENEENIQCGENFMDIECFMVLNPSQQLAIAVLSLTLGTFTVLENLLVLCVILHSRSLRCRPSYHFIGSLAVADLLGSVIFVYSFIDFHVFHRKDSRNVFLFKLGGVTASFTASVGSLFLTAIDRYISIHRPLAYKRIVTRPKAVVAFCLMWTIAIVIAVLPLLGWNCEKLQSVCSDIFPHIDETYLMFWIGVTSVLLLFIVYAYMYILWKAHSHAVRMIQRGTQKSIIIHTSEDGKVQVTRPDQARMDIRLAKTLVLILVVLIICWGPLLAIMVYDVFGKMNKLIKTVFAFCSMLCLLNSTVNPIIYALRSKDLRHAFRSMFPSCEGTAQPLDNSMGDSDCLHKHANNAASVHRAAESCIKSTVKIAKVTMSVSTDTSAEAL

Cannabinoid receptor 1 [2] = target: T1, Cannabinoid receptor 1; test: Positive allosteric modulation of human CB1 receptor expressed in CHO-K1 cells assessed as inhibition of forskolin-induced cAMP production by measuring maximum efficacy incubated for 30 mins in presence of forskolin by HitHunter chemiluminescence based assay relative to control; type: functional, cell-based
Cannabinoid receptor 1 [3] = target: T1, Cannabinoid receptor 1; test: Positive allosteric modulation of human CB1 receptor expressed in CHO-K1 cells assessed as beta-arrestin 2 recruitment incubated for 90 mins by PathHunter chemiluminescence based assay; type: cell-based
Cannabinoid receptor 1 [4] = target: T1, Cannabinoid receptor 1; test: Positive allosteric modulation of human CB1 receptor expressed in CHO-K1 cells assessed as beta-arrestin 2 […] by measuring maximum efficacy incubated for 90 mins by PathHunter chemiluminescence based assay relative to control; type: cell-based
Cannabinoid receptor 1 [5] = target: T1, Cannabinoid receptor 1; test: Displacement of [3H]CP55940 from human CB1 receptor expressed in CHO-K1 cell membrane assessed as maximum efficacy incubated for 60 mins by liquid scintillation spectrometry analysis relative to control; type: cell membranes
Cannabinoid receptor 1 [6] = target: T1, Cannabinoid receptor 1; test: Agonist activity at human CB1 receptor expressed in CHO cell membranes assessed as increase in [35S]GTPgammaS binding by measuring maximum efficacy incubated for 30 mins by liquid scintillation spectrometry analysis relative to control; type: functional; details: CHO-K1, Cell membrane, filed as agonist
Cannabinoid receptor 1 [7] = target: T1, Cannabinoid receptor 1; test: Potency index, ratio of GAT211 EC50 to test compound EC50 for positive allosteric modulation of human CB1 receptor expressed in CHO-K1 cells assessed as inhibition of forskolin-induced cAMP production incubated for 30 mins in presence of CP55940 by HitHunter chemiluminescence based assay; type: functional, cell-based
Cannabinoid receptor 1 [8] = target: T1, Cannabinoid receptor 1; test: Displacement of [3H]CP55940 from human CB1 receptor expressed in CHO-K1 cell membranes incubated for 60 mins by liquid scintillation spectrometry analysis; parameters: species or system Cell membrane
Cannabinoid receptor 1 [9] = target: T1, Cannabinoid receptor 1; test: Agonist activity at human CB1 receptor expressed in CHO cell membranes assessed as increase in [35S]GTPgammaS binding incubated for 30 mins by liquid scintillation spectrometry analysis; type: functional, CHO-K1, Cell membrane
Cannabinoid receptor 1 [10] = target: T1, Cannabinoid receptor 1; test: Agonist activity at human CB1 receptor expressed in CHO cell membranes assessed as increase in [35S]GTPgammaS binding by measuring maximum efficacy incubated for 30 mins in presence of CP55940 by liquid scintillation spectrometry analysis relative to control; type: functional; details: CHO-K1, Cell membrane, filed as agonist
Cannabinoid receptor 1 [11] = target: Cannabinoid receptor 1 (Mus musculus, UniProt P47746); test: Positive allosteric modulation of CB1 receptor in MF1 mouse vas deferens assessed as inhibition of AEA-induced electrically evoked vas deferens contraction incubated for 13 mins followed by electrical stimulation for 2 mins (Rvb= 460 nM); type: tissue-based
Sequence of Cannabinoid receptor 1 (Mus musculus, UniProt P47746) (P47746 whole entry): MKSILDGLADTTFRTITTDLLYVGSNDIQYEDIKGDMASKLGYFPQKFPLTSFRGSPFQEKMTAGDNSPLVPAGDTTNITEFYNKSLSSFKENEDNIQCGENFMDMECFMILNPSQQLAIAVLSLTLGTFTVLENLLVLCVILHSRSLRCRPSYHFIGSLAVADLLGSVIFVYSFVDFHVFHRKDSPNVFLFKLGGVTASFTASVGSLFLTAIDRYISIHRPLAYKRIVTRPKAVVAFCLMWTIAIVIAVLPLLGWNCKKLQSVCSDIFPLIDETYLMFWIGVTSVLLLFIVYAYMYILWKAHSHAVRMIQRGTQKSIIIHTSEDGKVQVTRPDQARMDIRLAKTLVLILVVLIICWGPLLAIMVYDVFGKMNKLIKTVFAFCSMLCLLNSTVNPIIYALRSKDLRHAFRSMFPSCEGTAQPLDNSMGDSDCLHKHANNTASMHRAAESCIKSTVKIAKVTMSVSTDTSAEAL

[12] = target: Cannabinoid receptor 1 (Mus musculus) (UniProt P47746); test: Positive allosteric modulation of CB1 receptor in MF1 mouse vas deferens assessed as inhibition of AEA-induced electrically evoked vas deferens contraction by measuring maximum efficacy incubated for 13 mins followed by electrical stimulation for 2 mins (Rvb= […]+/- […]% ); type: tissue-based; details: filed as positive allosteric modulator
Sequence of Cannabinoid receptor 1 (Mus musculus) (P47746 whole entry): as above

[13] = target: Cannabinoid receptor 1 (Mus musculus) (UniProt P47746); test: Agonist activity at CB1 receptor in C57BL/6 mouse hippocampal neurons assessed as inhibition of excitatory postsynaptic current at 1 uM at -70 mV holding membrane potential by whole cell patch clamp assay; type: functional, tissue-based; details: Neuron, filed as agonist
[14] = target: Cannabinoid receptor 1 (Mus musculus) (UniProt P47746); test: Positive allosteric modulation of CB1 receptor in C57BL/6 mouse hippocampal neurons assessed as decrease in inhibition of DSE recovery rate at 1 uM and holding potential at 0 mV for 10 secs followed by DSE stimulation; type: tissue-based; details: Neuron, filed as positive allosteric modulator, time 10.0 sec
Mus musculus = test: Antiglaucoma activity in normotensive C57BL/6 mouse model assessed as reduction in intraocular pressure at 5 mM administered topically measured after 1 hr; type: functional
in vitro [15] = details: human, liver microsomes
in vitro [16] = details: human, liver microsomes; remark: listed apart in the source
in vitro [17] = details: rat, liver microsomes
in vitro [18] = details: rat, liver microsomes; remark: listed apart in the source
physchem = details: PBS buffer, pH 7.4
[19] = filed as positive allosteric modulator

SMILES | EC50 (Cannabinoid receptor 1 [1]) | EC50 (Cannabinoid receptor 1 [3]) | Emax (Cannabinoid receptor 1 [2]; [19]) | Emax (Cannabinoid receptor 1 [4]) | also measured
O=[N+]([O-])CC(c1ccccc1)c1c(-c2cscn2)[nH]c2ccccc12 (stereo unspecified) | 1200 nM | > 10000 nM |  |  | Emax (Cannabinoid receptor 1 [2]): 38%; Emax (Cannabinoid receptor 1 [4]; [19]): 45%
O=[N+]([O-])CC(c1ccccc1)c1c(-c2ccco2)[nH]c2ccccc12 (stereo unspecified) | 130 nM | 2100 nM | 140% | 11% | 
O=[N+]([O-])CC(c1ccccc1)c1c(-c2c[nH]c3ccccc23)[nH]c2ccccc12 (stereo unspecified) | > 10000 nM | > 10000 nM |  | 1.3% | Emax (Cannabinoid receptor 1 [2]): -71%
O=[N+]([O-])CC(c1ccccc1)c1c(-c2ccn[nH]2)[nH]c2ccccc12 (stereo in doubt; 15g) [listing 1 of 2 here] | > 10000 nM | > 10000 nM |  |  | 
CC(C)[Si](C(C)C)(C(C)C)n1ccc(-c2[nH]c3ccccc3c2C(C[N+](=O)[O-])c2ccccc2)c1 (stereo unspecified) | 970 nM | > 10000 nM | 120% | -4.5% | 
O=[N+]([O-])CC(c1ccccc1)c1c(-c2cc[nH]c2)[nH]c2ccccc12 (stereo unspecified) | > 10000 nM | > 10000 nM | 52% | -1.5% | 
O=[N+]([O-])CC(c1ccccc1)c1c(-c2nccs2)[nH]c2ccccc12 (stereo unspecified) | 790 nM | > 10000 nM | 72% | 2.8% | 
CC(C)(C)OC(=O)n1c(-c2[nH]c3ccccc3c2C(C[N+](=O)[O-])c2ccccc2)cc2ccccc21 (stereo unspecified) | > 10000 nM | > 10000 nM |  | 0% | Emax (Cannabinoid receptor 1 [2]): 0%
CCCCCCC(C)(C)c1ccc([C@@H]2C[C@H](O)CC[C@H]2CCCO)c(O)c1 |  |  |  |  | Emax (Cannabinoid receptor 1 [5]): -100%; Emax (Cannabinoid receptor 1 [6]): 42%
O=[N+]([O-])CC(c1ccccc1)c1c(-c2cn[nH]c2)[nH]c2ccccc12 (stereo unspecified) | > 10000 nM | > 10000 nM | 110% | 3.5% | 
O=[N+]([O-])CC(c1ccccc1)c1c(-c2cc3ccccc3s2)[nH]c2ccccc12 (stereo unspecified) | 150 nM | > 10000 nM | 130% | 13% | 
O=[N+]([O-])CC(c1ccccc1)c1c(-c2ccn[nH]2)[nH]c2ccccc12 (stereo in doubt; 15h) [listing 1 of 2 here] |  |  |  |  | EC50 (Cannabinoid receptor 1 [1]; cho-k1): > 10000 nM; EC50 (Cannabinoid receptor 1 [3]; cho-k1): > 10000 nM
O=[N+]([O-])CC(c1ccccc1)c1c(-c2ccsc2)[nH]c2ccccc12 (stereo unspecified) | 87 nM | 320 nM | 98% |  | Emax (Cannabinoid receptor 1 [4]; [19]): 46%; Ratio EC50 (Cannabinoid receptor 1 [7]): 3; Ki (Cannabinoid receptor 1 [8]): 43 nM; Emax (Cannabinoid receptor 1 [5]; [19]): 100%; EC50 (Cannabinoid receptor 1 [9]): 130 nM; Emax (Cannabinoid receptor 1 [6]): 49%; Emax (Cannabinoid receptor 1 [10]): 46%; EC50 (Cannabinoid receptor 1 [11]): 30 nM; Emax [12]: 62%; inhibition [13]: Active; Activity [14]: Active; Activity (Mus musculus): 3.2 mmHg; microsomal CLint at 0.25 h, 1 µM (in vitro [15]): 111 µL/min/mg; half-life at 0.25 h, 1 µM (in vitro [16]): 20.8 min; microsomal CLint at 0.25 h, 1 µM (in vitro [17]): 489 µL/min/mg; half-life at 0.25 h, 1 µM (in vitro [18]): 4.72 min; solubility kinetic at 2 h, 200 µM (physchem): 1.56 µM (≈ 0.544 µg/mL)
O=[N+]([O-])CC(c1ccccc1)c1c(-c2cc3ccccc3o2)[nH]c2ccccc12 (stereo unspecified) | 550 nM | > 10000 nM | 96% | 9.5% | 
O=[N+]([O-])CC(c1ccccc1)c1c(-c2cccs2)[nH]c2ccccc12 (stereo unspecified) | 170 nM | 110 nM | 85% |  | Emax (Cannabinoid receptor 1 [4]; [19]): 57%; microsomal CLint at 0.25 h, 1 µM (in vitro [15]): 115 µL/min/mg; half-life at 0.25 h, 1 µM (in vitro [16]): 20 min; microsomal CLint at 0.25 h, 1 µM (in vitro [17]): 595 µL/min/mg; half-life at 0.25 h, 1 µM (in vitro [18]): 3.88 min; solubility kinetic at 2 h, 200 µM (physchem): 1.56 µM (≈ 0.544 µg/mL)
O=[N+]([O-])CC(c1ccccc1)c1c(-c2cncs2)[nH]c2ccccc12 (stereo unspecified) | 1500 nM | > 10000 nM | 100% | 5.1% | 
O=[N+]([O-])CC(c1ccccc1)c1c(-c2ccn[nH]2)[nH]c2ccccc12 (stereo in doubt; 15h) [listing 2 of 2 here] |  |  | 120% | 0.76% | 
O=[N+]([O-])CC(c1ccccc1)c1c(-c2ccn[nH]2)[nH]c2ccccc12 (stereo in doubt; 15g) [listing 2 of 2 here] |  |  |  | 0% | Emax (Cannabinoid receptor 1 [2]): 0%
O=[N+]([O-])CC(c1ccccc1)c1c(-c2ccccc2)[nH]c2ccccc12 (stereo unspecified) |  |  |  |  | Emax (Cannabinoid receptor 1 [5]; [19]): 57%
O=[N+]([O-])CC(c1ccccc1)c1c(-c2ccc[nH]2)[nH]c2ccccc12 (stereo unspecified) | 220 nM | > 10000 nM | 110% | 25% | 
O=[N+]([O-])CC(c1ccccc1)c1c(-c2ccoc2)[nH]c2ccccc12 (stereo unspecified) | 100 nM | > 1000 nM | 120% | 18% | 
O=[N+]([O-])CC(c1ccccc1)c1c(-c2cc3ccccc3[nH]2)[nH]c2ccccc12 (stereo unspecified) | > 10000 nM | > 10000 nM | 110% | 3.3% | 
